{"source": "paper PMC6269039", "about": "“Synthesis and Cytotoxicity Testing of New Amido-Substituted Triazolopyrrolo[2,1-c][1,4]benzodiazepine (PBDT) Derivatives” (Molecules, 2012)", "key": {"Mahlavu cells [1]": {"tested_on": "Mahlavu cells", "conditions": "48 h, CCK-8; for effect on viability of Mahlavu cells, in words: 100 µM", "experimental": "(§1) The cytotoxic activities of the newly synthesized amido-substituted triazolopyrrolo [2,1-c][1,4]benzodiazepines PBDT-7a–k were tested against Mahlavu and MRC-5 cells. After incubation of the cells with the compounds at concentrations of 3.12, 6.25, 12.50, 25.0, 50.0 and 100 µM for 48 h, the cell growth and viability were assessed by using CCK-8 assay.\n(§2) Human hepatocellular carcinoma (Mahlavu) epithelial cells were used for cell culture experiments. Cells were cultured with 90% Dulbecco’s modified Eagle’s medium with 10% fetal bovine serum, 100 U/mL penicillin, and 100 μg/mL streptomycin. The cells were placed in an incubator to maintain high humidity, a temperature of 37 °C, and 5% CO2 for cell culture experiments. Cells were routinely sub-passaged in a 1:4 to 1:6 split using 0.25% trypsin.\n(§3) The cell viability was determined using a CCK-8 assay following the manufacturer’s instructions. Mahlavu cells and MRC-5 cells were seeded in 96-well plates and allowed to attach overnight at 37 °C. Cells were treated with PBDT-7a–k in 0.1% FBS MEM or DMEM (100 μL/well), and the cells were incubated for 48 h in a humidified atmosphere. After the incubation period, 10 μL of cell Counting Kit-8 solution was added to the medium, and the cells were incubated for an additional 1–4 h in the incubator. The absorbance at 450 nm was then measured using a microplate reader. The IR was calculated using the following equation: IR = [1 − (A value for the treated samples − A value for the blank samples)/(A value for the control samples − A value for the blank samples)] × 100%. The assays were performed in triplicate and repeated at least twice.\n(§4) Mahlavu cells were treated with PBDT-7 series compounds for 48 h, and survival was assessed using a CCK-8 assay (mean ± SEM, n = 6)."}, "Mahlavu cells [2]": {"tested_on": "Mahlavu cells", "test": "cells", "conditions": "Homo sapiens, 48 h; for IC50: read-out: IC50 for Mahlavu cells; for viability at 100 µM: read-out: percentage of viable Mahlavu cells (cell viability)", "experimental": "as §1, §2, §3, §4"}, "MRC-5 cells": {"tested_on": "MRC-5 cells", "test": "CCK-8 cytotoxicity assay, MRC-5 cells", "conditions": "48 h", "experimental": "(§5) After incubation of the cells with the compounds at concentrations of 3.12, 6.25, 12.50, 25.0, 50.0 and 100 µM for 48 h, the cell growth and viability were assessed by using CCK-8 assay.\n(§6) Human fibroblast cells (MRC-5) cells were used for cell culture experiments. Cells were cultured with 90% Eagle’s minimum essential medium with 2 mM L-glutamine and Earle’s BSS adjusted to contain 1.5 g/L sodium bicarbonate, 0.1 mM non-essential amino acids, 1.0 mM sodium pyruvate with 10% fetal bovine serum, 100 U/mL penicillin, and 100 μg/mL streptomycin. The cells were placed in an incubator to maintain high humidity, 37 °C, and 5% CO2 for the cell culture experiments. Cells were routinely sub-passaged in a 1:2 to 1:5 split using 0.25% trypsin.\n(§7) The cell viability was determined using a CCK-8 assay following the manufacturer’s instructions. Mahlavu cells and MRC-5 cells were seeded in 96-well plates and allowed to attach overnight at 37 °C. […] After the incubation period, 10 μL of cell Counting Kit-8 solution was added to the medium, and the cells were incubated for an additional 1–4 h in the incubator. The absorbance at 450 nm was then measured using a microplate reader. The IR was calculated using the following equation: IR = [1 − (A value for the treated samples − A value for the blank samples)/(A value for the control samples − A value for the blank samples)] × 100%. The assays were performed in triplicate and repeated at least twice."}, "in vitro": {"test": "in vitro", "conditions": "human", "experimental": "as §5, §6, §7"}}}
{"smiles": "O=C(Nc1nnc2n1-c1ccccc1C(=O)N1CCC[C@@H]21)c1ccccc1F", "note": "[PBDT-7c, 2-Fluoro-N-((13aS)-9-oxo-11,12,13,13a-tetrahydro-9H-benzo[e]pyrrolo[1,2-a][1,2,4]triazolo[3,4-c][1,4]diazepin-3-yl)benzamide]", "values": [{"measurement": "effect on viability of Mahlavu cells, in words", "setting": "Mahlavu cells [1]", "value": "little effect"}]}
{"smiles": "O=C(Nc1nnc2n1-c1ccccc1C(=O)N1CCC[C@@H]21)c1ccc(F)cc1", "note": "[PBDT-7e, 4-Fluoro-N-((13aS)-9-oxo-11,12,13,13a-tetrahydro-9H-benzo[e]pyrrolo[1,2-a][1,2,4]triazolo[3,4-c][1,4]diazepin-3-yl)benzamide]", "values": [{"measurement": "effect on viability of Mahlavu cells, in words", "setting": "Mahlavu cells [1]", "value": "little effect"}]}
{"smiles": "O=C(Nc1nnc2n1-c1ccccc1C(=O)N1CCC[C@@H]21)c1cccc(C(F)(F)F)c1", "note": "[PBDT-7i, N-((13aS)-9-Oxo-11,12,13,13a-tetrahydro-9H-benzo[e]pyrrolo[1,2-a][1,2,4]triazolo[3,4-c][1,4]diazepin-3-yl)-3-(trifluoromethyl)benzamide]", "values": [{"measurement": "inhibition of Mahlavu cells, in words", "setting": "Mahlavu cells [1]", "value": "selectively inhibit the growth"}, {"measurement": "IC50", "setting": "Mahlavu cells [2]", "value": 50, "unit": "µM"}, {"measurement": "viability at 100 µM", "setting": "Mahlavu cells [2]", "value": 2, "unit": "%"}, {"measurement": "toxicity to MRC-5 (normal) cells, in words", "setting": "MRC-5 cells", "value": "low-toxic"}]}
{"smiles": "CC(C)(C)C(=O)Nc1nnc2n1-c1ccccc1C(=O)N1CCC[C@@H]21", "note": "[PBDT-7a, ((13aS)-9-Oxo-11,12,13,13a-tetrahydro-9H-benzo[e]pyrrolo[1,2-a][1,2,4]triazolo[3,4-c][1,4]diazepin-3-yl)pivalamide]", "values": [{"measurement": "melting point", "value": "213 to 215", "unit": "°C"}, {"measurement": "viability at 100 µM", "setting": "Mahlavu cells [2]", "value": "> 75", "unit": "%"}, {"measurement": "viability at 48 h, 100 µM", "setting": "in vitro", "value": "> 75", "unit": "%"}]}
{"smiles": "O=C(Nc1nnc2n1-c1ccccc1C(=O)N1CCC[C@@H]21)c1cccc(F)c1", "note": "[PBDT-7d, 3-Fluoro-N-((13aS)-9-oxo-11,12,13,13a-tetrahydro-9H-benzo[e]pyrrolo[1,2-a][1,2,4]triazolo[3,4-c][1,4]diazepin-3-yl)benzamide]", "values": [{"measurement": "melting point", "value": "159 to 160", "unit": "°C"}, {"measurement": "viability at 100 µM", "setting": "Mahlavu cells [2]", "value": "~61", "unit": "%"}]}
{"smiles": "O=C(Nc1nnc2n1-c1ccccc1C(=O)N1CCC[C@@H]21)c1cccnc1", "note": "[PBDT-7j, N-((13aS)-9-Oxo-11,12,13,13a-tetrahydro-9H-benzo[e]pyrrolo[1,2-a][1,2,4]triazolo[3,4-c][1,4]diazepin-3-yl)nicotinamide]", "values": [{"measurement": "melting point", "value": 225, "unit": "°C"}, {"measurement": "viability at 100 µM", "setting": "Mahlavu cells [2]", "value": "> 75", "unit": "%"}, {"measurement": "viability at 48 h, 100 µM", "setting": "in vitro", "value": "> 75", "unit": "%"}]}
{"smiles": "O=C(Nc1nnc2n1-c1ccccc1C(=O)N1CCC[C@@H]21)c1cccc(Cl)c1", "note": "[PBDT-7h, 3-Chloro-N-((13aS)-9-oxo-11,12,13,13a-tetrahydro-9H-benzo[e]pyrrolo[1,2-a][1,2,4]triazolo[3,4-c][1,4]diazepin-3-yl)benzamide]", "values": [{"measurement": "survival rate of Mahlavu cells", "setting": "Mahlavu cells [1]; 50 µM", "value": "below 50%"}, {"measurement": "inhibition of Mahlavu cells, in words", "setting": "Mahlavu cells [1]", "value": "potent inhibitor"}, {"measurement": "toxicity to MRC-5 (normal) cells, in words", "setting": "MRC-5 cells", "value": "highly toxic"}]}
{"smiles": "N#Cc1cccc(C(=O)Nc2nnc3n2-c2ccccc2C(=O)N2CCC[C@@H]32)c1", "note": "[PBDT-7g, 3-Cyano-N-((13aS)-9-oxo-11,12,13,13a-tetrahydro-9H-benzo[e]pyrrolo[1,2-a][1,2,4]triazolo[3,4-c] [1,4]diazepin-3-yl)benzamide]", "values": [{"measurement": "melting point", "value": "245 to 246", "unit": "°C"}, {"measurement": "IC50", "setting": "Mahlavu cells [2]", "value": 50, "unit": "µM"}, {"measurement": "viability at 100 µM", "setting": "Mahlavu cells [2]", "value": 36, "unit": "%"}]}
{"smiles": "COc1cccc(C(=O)Nc2nnc3n2-c2ccccc2C(=O)N2CCC[C@@H]32)c1", "note": "[PBDT-7f, 3-Methoxy-N-((13aS)-9-oxo-11,12,13,13a-tetrahydro-9H-benzo[e]pyrrolo[1,2-a][1,2,4]triazolo[3,4-c][1,4]diazepin-3-yl)benzamide]", "values": [{"measurement": "melting point", "value": "168 to 170", "unit": "°C"}, {"measurement": "viability at 100 µM", "setting": "Mahlavu cells [2]", "value": 37, "unit": "%"}]}
{"smiles": "O=C(Nc1nnc2n1-c1ccccc1C(=O)N1CCC[C@@H]21)c1cccs1", "note": "[PBDT-7k, N-((13aS)-9-Oxo-11,12,13,13a-tetrahydro-9H-benzo[e]pyrrolo[1,2-a][1,2,4]triazolo[3,4-c][1,4]diazepin-3-yl)thiophene-2-carboxamide]", "values": [{"measurement": "melting point", "value": "185 to 186", "unit": "°C"}, {"measurement": "viability at 100 µM", "setting": "Mahlavu cells [2]", "value": "> 75", "unit": "%"}, {"measurement": "viability at 48 h, 100 µM", "setting": "in vitro", "value": "> 75", "unit": "%"}]}
{"smiles": "O=C(Nc1nnc2n1-c1ccccc1C(=O)N1CCC[C@@H]21)c1ccccc1", "note": "[PBDT-7b, N-((13aS)-9-Oxo-11,12,13,13a-tetrahydro-9H-benzo[e]pyrrolo[1,2-a][1,2,4]triazolo[3,4-c][1,4]diazepin-3-yl)benzamide]", "values": [{"measurement": "melting point", "value": "173 to 175", "unit": "°C"}, {"measurement": "viability at 100 µM", "setting": "Mahlavu cells [2]", "value": "> 75", "unit": "%"}, {"measurement": "viability at 48 h, 100 µM", "setting": "in vitro", "value": "> 75", "unit": "%"}]}
